The text below walks through data of patent publication US9096543B2, “Nuclear transport modulators and uses thereof” (Karyopharm Therapeutics Inc., priority 2012, dated 2015).

One data set relates to Z-138 xenograft tumors. The data set is described as follows: Z-138 lymphoma cell line grown as a xenograft in SCID mice. The class given is in vivo, CB-17 SCID mice. How it is done:
Z-138 (ATCC # CRL-3001) mantle cell lymphoma cells were obtained from ATCC. These cells were grown in IMEM medium supplemented with 10% horse serum, 1% penicillin and streptomycin, and 2 mM L-glutamine. […] Twenty-four (24) female CB-17 SCID mice (Charles River Labs strain code 236), aged 5 to 6 weeks were used. The SCID mice were inoculated in the left flank with Z-138 cells in a volume of 0.2 mL, equivalent to 4×10^7 cells per mouse. […] Mice were allocated to […] prior to the initiation of treatment based on tumor volume such that mean tumor volume in each group was within the range of 77 to 92 mm^3. […] Animals were fed with Labdiet® 5001 rodent chow and sterile water ad libitum. […] Animals with weight loss of more than 20% of their starting weight were euthanized. Mice with weight loss of more than 15% of their starting weight were not treated again until weight loss recovered to less than 5% of their starting weight. Any animals with a tumor volume of more than 1500 mm^3 were euthanized. Dosing solutions were prepared fresh on each day of dosing. […] This was prepared by dissolving the lyophilized powder in sterile water.

Data set [1] relates to collagen-induced arthritis. The data set is described as follows: Collagen-induced arthritis (CIA) in Lewis rats. In kind it is in vivo. How it is done:
Forty (40) female Lewis rats (BK), aged 6 to 8 weeks with a pre-treatment body weight range of 180 to 200 g were divided randomly into four (4) groups (Groups A-D) of ten (10) rats each. The rats in Groups B to D were immunized intradermally with bovine CII in IFA at three sites near the base of the tail and over the back with 500 μl, of the emulsion on day 0 (200 μL, 200 μL, 100 μL for each site). On day 7, the rats in Groups B-D were given booster injections with the same amount of the emulsion intradermally near the former injection sites. […] Rats were weighed daily and a drug holiday was given to an animal when a weight loss of greater than 13%. CIA development was evaluated via macroscopic scoring and measurements of paw swelling. […] Foot volume was measured by plethysmometry on the same day of the arthritic measurement throughout the study period. The cubage of each hind paw and swelling rate were measured and using the following equation: Swelling Rate=(CN−C0)/C0×100%. […] The clinical scores were summed for each animal, and the total average of all animals in each group was expressed as the mean arthritic score. […] Prepared sections of hind paws were subjected to hematoxylin and eosin (H&E) staining.

The subject of the next data set is PMA-induced psoriasis. The data set is described as follows: PMA-induced psoriasis in female BALB/c mice. The class given is in vivo. The following applies: topical. How it is done:
Twenty-four (24) female BALB/c mice, aged 6 to 8 weeks with a body weight between 22 and 30 g were used. The mice were randomized into […]. The grouping of animals was as follows: Group I (Naïve; ethanol), Group II (PMA; ethanol), Group III (PMA; Compound 210 μM) and Group IV (PMA; betamethasone). Twenty (20)μL of PMA (4 μg/20 μL of acetone) was applied topically on the upper surface of pinna of ear of all animals in Group II to Group IV. PMA was applied daily on left ear and on alternate days (M-W-F) on right ear from Day 1 to Day 9. Thirty (30) minutes after application of PMA, vehicle or standard compound (betamethasone) or Compound 2 was applied topically to the ears of animals from different groups. […] Animals were observed daily for a period of 12 days for any treatment related symptoms. Basal ear thickness was recorded in all animals (before application of PMA) using digital screw gauge at time T0 (Day 1). […] Commercially available 100% DMSO (LR Grade) and ethanol (LR Grade) were used to prepare the formulations. PMA was prepared by dissolving 10 mg of PMA in 50.0 mL of acetone. Compound 2 was prepared by dissolving 1.47 mg of Compound 2 in 300 μL of 100% DMSO.

For another data set, the system named is obese Zucker rats. The data set is described as follows: Food intake and body weight in Zucker rats. In kind it is in vivo. How it is done:
Twenty-one (21) male Zucker rats aged 7 months were allocated into 3 groups of N=7 based on equivalent body weights and food intakes. An additional group of N=7 age matched Zucker lean controls were included as a control. Body weights and food and water intakes were measured at approximately the same time each day (14:30-15:30 h). On treatment days, dosing was at 14:30-15:30 h (approximately 2 hours before lights off).
The Zucker obese and lean controls were orally treated with vehicle (10 mL/kg dose volume; 0.5% Pluronic F68 and 0.5% PVP K29/32 in water) on each weekday. Both Compound 2 (1.5 mg/kg and 3 mg/kg) groups were orally treated on each weekday (10 mL/kg dose volume; 0.5% Pluronic F68 and 0.5% PVP K29/32 in water). Prior to the treatment phase, 4 days baseline data were collected. The treatment phase was for 16 days and a washout phase of 6 days was also included.

In data set [2] the test system is cytokines GRO/KC, IFNγ, IL-1B, IL-6, IL-10, IL-12p70 and TNFa. The data set is described as follows: Plasma cytokine expression after BCCI injury (Luminex). The note with it: 6 mg/kg. In kind it is in vivo, rats. How it is done: The expression level of several cytokines in plasma harvested from rats in each treatment group was measured. The samples were received frozen and stored at −80° C. On the day of the experiment, the samples were thawed, diluted four-fold, and analyzed for cytokine expression on a Luminex platform. The samples were analyzed for the cytokines GRO/KC, IFNγ, IL-1B, IL-6, IL-10, IL-12p70 and TNFa, using a multipliex kit manufactured by Millipore. […] The biggest change was in IL-10.

“Also recorded” adds a separate entry of the source.

Regarding `O=C(/C=C\n1cnc(-c2cc(C(F)(F)F)cc(C(F)(F)F)c2)n1)NNC(=O)CN1CCOCC1` [Compound 2, (Z)-3-(3-(3,5-bis(trifluoromethyl)phenyl)-1H-1,2,4-triazol-1-yl)-N′-(2-morpholinoacetyl)acrylohydrazide], in the data set with Z-138 xenograft tumors (Compound 2 15 mg/kg PO, significant vs vehicle, severe loss limited to a few animals), the weight loss result is “Some weight loss was observed”. Besides, in the data set on Z-138 xenograft tumors (Compound 2 orally, 7.5 and 15 mg/kg MWF), the antitumor effect result was “had antitumor effect at both 7.5 mg/kg and 15 mg/kg doses in a dose dependent manner”. In addition, the “therapeutic efficacy (Clinical Scores, Joint Swelling, histological examination)” value in data set [1] (4 mg/kg (MPK) PO QoD from onset to day 28) is on record as “showed the therapeutic efficacy”. In addition, the “histopathological analysis of hind paws (H&E)” value in data set [1] (day 28, 4 mg/kg PO QoD from onset) was “relatively intact cartilage was found on the joint surface and pannus formation was minimal”. For the same compound, in the data set with PMA-induced psoriasis, the anti-psoriatic activity result was “statistically significant anti-psoriatic activity”. Besides, the “PMA-induced increases in ear thickness and disease activity index (DAI)” value in the data set with PMA-induced psoriasis (10 μM daily, prominent Days 6-8, diminished Day 10 and beyond) is “prominent reduction in PMA-induced increases in (i) left and right ear thickness, and (ii) left and right ear DAI”. In addition, the “body weight gain versus Zucker vehicle group” value in the data set with obese Zucker rats (3 mg/kg oral) was “lower weight gain in comparison to the Zucker control group”. For the same compound, in the data set on obese Zucker rats (1.5-3 mg/kg oral each weekday, 16 day treatment period), the “daily food intake and body weight compared to Zucker control group” value is “dose-related decrease in daily food intake and body weight; also recorded: dose dependent decrease in daily food effect”.
With `CC(C)(C)C(=O)NNC(=O)/C=C\n1cnc(-c2cc(C(F)(F)F)cc(C(F)(F)F)c2)n1` [Compound 1, (Z)-3-(3-(3,5-bis(trifluoromethyl)phenyl)-1H-1,2,4-triazol-1-yl)-N′-pivaloylacrylohydrazide], the “plasma IL-10 compared to vehicle-treated control group” value in data set [2] is on record as “reduced IL-10”.
